Series [1] has as its system M. tuberculosis H37Rv-GFP in human primary macrophages. It counts as cell-based, Mycobacterium tuberculosis.
The next series relates to C. striatum. It counts as cell-based, Corynebacterium striatum.
The next series has as its system BCG Pasteur-Tokyo. It is filed as cell-based, M. bovis BCG.
Series [2] relates to M. tuberculosis H37Rv. It counts as cell-based.
Series [3] relates to M. tuberculosis H37Rv-GFP. Description: microbe, parasite or virus in culture. It is filed as cell-based, Mycobacterium tuberculosis. To be noted: Mycobacterium tuberculosis, H37RV, read-out: MIC Extracellular.
Series [4] relates to M. tuberculosis H37Ra. It counts as cell-based.
For series [5], the system named is M. tuberculosis H37Ra. It counts as cell-based. This is another data set of the same source.
Series [6] has as its system Acinetobacter baumannii, Escherichia coli, Enterobacter cloacae, E. aerogenes, Klebsiella oxytoca, Pseudomonas aeruginosa, Salmonella enteridis, Vibrio mimicus. It is filed as cell-based, Gram-negative bacteria.
Series [7] relates to M. tuberculosis H37Rv-GFP in Raw264.7 macrophages. As to the kind of experiment: microbe, parasite or virus in culture. It counts as cell-based, Mycobacterium tuberculosis. To be noted: Mycobacterium tuberculosis, H37RV, read-out: MIC Intracellular.
Series [8] relates to Staphylococcus aureus, S. epidermis, S. capitis, S. xylosus, Micrococcus luteus, Listeria innocua, Lactobacillus gallinarum, group G Streptococcus …. It is filed as cell-based, Gram-positive bacteria.
The test system of the next series is BCG Wild Type. Description: microbe, parasite or virus in culture. It is filed as cell-based, M. bovis BCG. Conditions: Mycobacterium tuberculosis variant bovis BCG, BCG.
The test system of the next series is M. smegmatis mc2 155. It is filed as cell-based.
The next series in a line: in vitro. Conditions: C57BL/6, mouse.
The subject of series [9] is Candida albicans, C. glabrata, C. parapsilosis. It is filed as cell-based, Fungi.
Series [10] has as its system M. tuberculosis H37Rv. It counts as cell-based. This is another data set of the same source.
Series [11] concerns M. smegmatis mc2 155 Wild Type. Description: microbe, parasite or virus in culture. It counts as cell-based. Conditions: Mycolicibacterium smegmatis, MC2155.
For series [12], the system named is M. tuberculosis H37Rv-GFP in mouse bone marrow-derived macrophages. It counts as cell-based, Mycobacterium tuberculosis.
The next series relates to C. jeikeium. It is filed as cell-based, Corynebacterium jeikeium.

The structures appear in SMILES notation. ≈ marks a conversion by molar mass, not a printed value.

As usually defined, the IC50 is the concentration at which inhibition is half-maximal. Low readings indicate higher potency, high ones lower potency.

As to `COc1ccc(OCCNC(=O)c2cc([N+](=O)[O-])cc([N+](=O)[O-])c2)cc1` [Compound 8, N-(2-(4-methoxyphenoxy)ethyl)-3,5-dinitrobenzamide], the “decrease in the number of CFUs” value in series [1] and in [12] was “More than a ten-fold decrease” throughout. Besides, the “Range of MICs for multiple strains” value in the series on C. striatum was 27 µM; in the series on BCG Pasteur-Tokyo it was 0.2 µM; in the series with M. tuberculosis H37Rv [2], 0.2 µM; in the series on M. tuberculosis H37Ra [4] it was 0.2 µM; in series [6] it was over 250 µM; in series [8], over 250 µM. In addition, the “Range of MICs for multiple strains” value in the series on M. smegmatis mc2 155 is recorded as 0.4 µM; in [9] it was over 250 µM; in the series on C. jeikeium, 2.7 µM. For the same compound, the MIC in series [3] turned out to be 0.2 µM (≈ 0.0723 µg/mL); in [7], 0.2 µM (≈ 0.0723 µg/mL); against BCG Wild Type, 0.075 µg/mL (≈ 0.208 µM); in [11] it was 0.15 µg/mL (≈ 0.415 µM). For the same compound, the “effect on the synthesis of the arabinan domains of arabinogalactan (AG) and lipoarabinomannan (LAM)” value in the series with M. tuberculosis H37Ra [5] was “clear-cut effect”. Also, the “effects on the biosynthesis of fatty acids, mycolic acids and/or other lipids” value in the series on M. tuberculosis H37Ra [5] was “no effects”. Besides, the concentration for half-maximal inhibition (IC50) in the series “in vitro” worked out at 50 µM. Also, in the series on M. tuberculosis H37Rv [10], the “bactericidal effect on M. tuberculosis” value is “time-dependent”.

(Values after paper PMC2763345 (PLoS Pathogens, 2009).)
